Measurements taken from patent US12721838B2 (Henry Ford Health System, priority 2020, dated 2026).
“Also recorded” adds a separate entry of the source. Read-outs that look alike come from different tables or passages of the source. Where a SMILES comes first, the peptide text is derived from it. The star is where a group is joined. Cbz = O=C(OCc1ccccc1)*; CH2F = FC*

Columns and labels:
LNCaP-ENR cells [1] = assay: MTS/PES cell viability assay, ERPC cells; type: cell-based, human; conditions: LNCaP-ENR cells, varying doses, 72 hours, MTS/PES; listed as ledipasvir
Protocol: Plates were incubated for 72 hours at 37° C. in a CO2 incubator. Cell viability was measured by MTS/PES cell titer assay (Promega Corp., Madison, WI).

LNCaP-ENR cells [2] = assay: Soft-agar colony formation assay; type: cell-based, human; conditions: LNCaP-ENR (ERPC) cells, three weeks; DCV at 8 μM
Protocol: Effect of DCV on soft-agar colony formation was also analyzed. LNCaP-ENR cells (10,000 per well in 6-well plates) were plated in 0.3% soft-agar on top of a base layer of 0.6% agar. The cells were treated with DCV and incubated at 37° C. for three weeks in the CO2 incubator. Cells were given fresh media and drug every fourth day. At the end of the incubation period, colonies were stained with 0.025% crystal violet, and pictures of colonies were taken with a Nikon digital camera at ×200. Image processing was done using Q-Capture Pro-7 software. Exemplary methods of the foregoing technique can be found in Sarveswaran, Sivalokanathan et al. “Inhibition of 5-lipoxygenase downregulates stemness and kills prostate cancer stem cells by triggering apoptosis via activation of c-Jun N-terminal kinase.” Oncotarget vol. 10, 4 424-436. 11 Jan. 2019, the disclosure of which is incorporated herein by reference in its entirety.

[3] = test system: LNCaP-ENR and MR49F ERPC cells; assay: In vitro invasion through extracellular matrix; type: cell-based, human; conditions: LNCaP-ENR and MR49F ERPC cells (data not shown)
LNCaP-ENR cells [4] = assay: Apoptosis by Annexin V binding, flow cytometry; type: cell-based, human
Protocol: To test DCV effects on cancer cell apoptosis, LNCaP-ENR cells were treated with 8 μM DCV for 24 hours and analyzed by flow cytometry. Treatment with DCV indicated increased Annexin V binding, a read-out for apoptosis (FIG. 3C).

[5] = target: T1, Trib2-Luciferase (Luc-Trib2) fusion (Homo sapiens, UniProt Q92519); conditions: 10 μM, 24 hours, HFF-Trib2-Luc cells
T1 sequence (Q92519 with tags, fused parts or gaps): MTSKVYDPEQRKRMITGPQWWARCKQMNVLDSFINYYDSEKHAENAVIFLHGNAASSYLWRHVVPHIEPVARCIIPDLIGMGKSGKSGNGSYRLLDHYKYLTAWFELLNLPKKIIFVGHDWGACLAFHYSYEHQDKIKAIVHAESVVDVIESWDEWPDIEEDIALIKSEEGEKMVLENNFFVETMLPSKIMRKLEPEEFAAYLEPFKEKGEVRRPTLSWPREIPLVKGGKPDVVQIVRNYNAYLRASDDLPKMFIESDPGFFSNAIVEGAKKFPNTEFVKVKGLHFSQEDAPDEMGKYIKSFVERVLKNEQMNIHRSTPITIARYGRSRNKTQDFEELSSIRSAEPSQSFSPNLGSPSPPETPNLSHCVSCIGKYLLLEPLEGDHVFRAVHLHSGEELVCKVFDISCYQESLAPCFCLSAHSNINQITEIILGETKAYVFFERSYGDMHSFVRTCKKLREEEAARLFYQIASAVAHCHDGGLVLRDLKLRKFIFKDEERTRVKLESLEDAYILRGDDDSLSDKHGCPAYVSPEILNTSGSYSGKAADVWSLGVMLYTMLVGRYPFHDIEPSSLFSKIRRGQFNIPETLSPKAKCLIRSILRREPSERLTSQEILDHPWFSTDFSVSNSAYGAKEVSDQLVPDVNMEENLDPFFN

[6] = target: T1, Trib2-Luciferase (Luc-Trib2) fusion; assay: cell-based; conditions: HFF, read-out: Luciferase activity (%)
TRIB2 = target: T2, TRIB2 (Homo sapiens, UniProt Q92519); assay: Western blot of TRIB2 protein levels in cancer cells; type: cell-based; set-up: Whole cell lysate proteins were analyzed by Western blot; endogenous in cells; host or cells: LNCaP-ENR (enzalutamide-resistant LNCaP) cells; conditions: LNCaP-ENR cells, 10 μM, 24 hours, Western blot
T2 sequence (Q92519 1-343): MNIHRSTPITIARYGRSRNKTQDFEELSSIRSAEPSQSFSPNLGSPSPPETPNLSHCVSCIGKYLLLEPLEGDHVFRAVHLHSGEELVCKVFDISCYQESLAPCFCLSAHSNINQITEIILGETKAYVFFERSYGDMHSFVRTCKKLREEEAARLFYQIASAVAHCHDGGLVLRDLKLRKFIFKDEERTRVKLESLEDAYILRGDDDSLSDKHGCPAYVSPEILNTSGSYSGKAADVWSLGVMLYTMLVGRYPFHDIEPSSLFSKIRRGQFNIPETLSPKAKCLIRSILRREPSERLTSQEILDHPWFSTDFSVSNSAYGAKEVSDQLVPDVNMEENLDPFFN
Protocol: Enzalutamide-resistant prostate cancer (ERPC) cells (LNCaP-ENR cells) were plated and treated with 10 μM each of various compounds for 24 hours. Exemplary methods for developing and using LNCaP-ENR cells is disclosed in Monga, J., Subramani, D., Bharathan, A., and Ghosh, J. (2020) “Pharmacological and genetic targeting of 5-lipoxygenase interrupts c-Myc oncogenic signaling and kills enzalutamide-resistant prostate cancer cells via apoptosis.” Scientific Reports 10: 6649, the disclosure of which is incorporated herein by reference in its entirety. Whole cell lysate proteins were analyzed by Western blot. TRIB2 antibody was used to detect protein levels of TRIB2 and GAPDH was used as loading control. Monoclonal anti-Trib2 antibody was purchased from Santa Cruz Biotech, Santa Cruz, CA.
LNCaP-ENR cells were treated with varying doses (4 μM, 8 μM, or 12 μM) of DCV for 24 hours. Effects on TRIB2 protein levels and its downstream targets (e.g., pAkt, Bcl-xL, Survivin, and FOXO3) were analyzed by Western blot. GAPDH was used as loading control. Protein levels of TRIB2, pAKT (S473), Bcl-xL, and Survivin were reduced in cells treated with 12 μM of DCV compared to control-treated cells (FIG. 3A). Levels of FOXO3 protein were increased at 12 μM of DCV treatment compared to control treatment. This was expected, as FOXO3 level is known to be decreased by Trib2. These effects on cellular protein levels were DCV concentration-dependent, with the most pronounced effects observed at the highest concentration tested (12 μM).

Trib2-OE cells = assay: Enzalutamide sensitivity of Trib2-overexpressing prostate cancer cells; type: cell-based, human; conditions: clinically relevant doses
Description: Prostate cancer cells were transfected with full length human gene to overexpress Trib2 (FIG. 18). […] Trib2 siRNA was used in parallel experiments as a positive control.

With `COC(=O)N[C@H](C(=O)N1CC2(CC2)C[C@H]1c1nc(-c2ccc3c(c2)C(F)(F)c2cc(-c4ccc5[nH]c([C@@H]6[C@H]7CC[C@H](C7)N6C(=O)[C@@H](NC(=O)OC)C(C)C)nc5c4)ccc2-3)c[nH]1)C(C)C` [Ledipasvir] the Cell viability (LNCaP-ENR cells [1]) was “not”, the soft-agar colony formation (LNCaP-ENR cells [2]) was “completely ineffective” and the “in vitro invasion through extracellular matrix” value [3] was “completely ineffective”. For the same compound, the “signs of apoptotic features” value (LNCaP-ENR cells [4]; ERPC cells) was “did not show any signs of apoptotic features”, the “inhibition of Trib2-luciferase activity (in words)” value (“inhibition” below) [5] was “completely ineffective” and the “inhibition” value ([5]; listed as ledipasvir) was “no inhibition; also recorded: not effective”. For the same compound, the activity at 10 µM [6] was 100% and the TRIB2 protein levels (TRIB2) was “neither downregulates TRIB2”.
For `COC(=O)C[C@H](NC(=O)[C@H](C)NC(=O)[C@@H](NC(=O)OCc1ccccc1)C(C)C)C(=O)CF` [Z-VAD-FMK] (Cbz-Val-Ala-Asp(OMe)-CH2F), the “DCV treatment-induced apoptosis after pretreatment with caspase inhibitor” value (LNCaP-ENR cells [4]; ERPC cells pretreated) was “inhibited”.
In the case of `CNC(=O)c1ccc(N2C(=S)N(c3ccc(C#N)c(C(F)(F)F)c3)C(=O)C2(C)C)cc1F` [enzalutamide], the “response of Trib2-OE cells to enzalutamide” value (Trib2-OE cells) is reported as “completely resistant”.
For `CC(C)CN(C[C@@H](O)[C@H](Cc1ccccc1)NC(=O)O[C@H]1CO[C@H]2OCC[C@H]21)S(=O)(=O)c1ccc(N)cc1` [Darunavir], the “inhibition” value [5] was “completely ineffective; also recorded: not effective” and the activity at 10 µM [6] was 93%.
